Data as given in patent US20050165057A1, “Novel piperidine derivative” (priority 2002, published 2005).

Key:
ACAT [1] = target: T1, ACAT (Rattus norvegicus, UniProt O70536); experiment: Assay of ACAT inhibitory activity in a macrophage derived from rat peritoneal cavity; type: cell-based; details: concentration of compound: 500 nM
T1 construct: The rat peritoneal-derived macrophage was prepared according to the method disclosed in the literature; endogenous in cells; host or cells: rat peritoneal macrophages (primary cells)
T1 sequence (O70536 1-545): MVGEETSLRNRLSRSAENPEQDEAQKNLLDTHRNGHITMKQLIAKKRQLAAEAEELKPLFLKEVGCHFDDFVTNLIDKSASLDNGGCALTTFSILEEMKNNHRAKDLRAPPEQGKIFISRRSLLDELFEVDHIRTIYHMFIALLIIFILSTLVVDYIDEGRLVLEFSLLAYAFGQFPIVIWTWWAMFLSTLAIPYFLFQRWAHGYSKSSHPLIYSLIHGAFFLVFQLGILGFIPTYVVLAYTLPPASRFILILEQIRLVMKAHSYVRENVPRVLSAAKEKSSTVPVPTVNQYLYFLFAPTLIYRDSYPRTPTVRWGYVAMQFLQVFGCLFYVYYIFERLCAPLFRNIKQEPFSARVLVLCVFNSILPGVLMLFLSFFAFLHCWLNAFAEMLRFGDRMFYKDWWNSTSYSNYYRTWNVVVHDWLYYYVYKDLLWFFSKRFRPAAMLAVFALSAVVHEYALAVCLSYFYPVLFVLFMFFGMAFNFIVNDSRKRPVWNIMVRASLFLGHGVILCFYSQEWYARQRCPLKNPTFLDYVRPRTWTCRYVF
Protocol: 2. Assay of ACAT Inhibitory Activity in a Macrophage Derived from Rat Peritoneal Cavity:
The rat peritoneal-derived macrophage was prepared according to the method disclosed in the literature: Biochimica et Biophysica Acta, 1126, 73-80, 1992. The ACAT activity was determined by a modified method of the method disclosed in the above literature: Biochimica et Biophysica Acta, 1126, 73-80, 1992, using radioactive [9, 10-^3H]oleic acid and exogenous cholesterol contained in the liposome which was re-constituted according to the method disclosed in the literature: Biochimica et Biophysica Acta, 1213, 127-134, 1994, and calculated from the radioactivity of the labeled cholesterolyl oleate.

ACAT [2] = experiment: Assay of ACAT inhibitory activity using Caco-2 cells; type: cell-based, human; details: concentration of compound: 500 nM
Protocol: 1. Assay of ACAT Inhibitory Activity Using Caco-2 Cells Derived from Human Colon Adenocarcinoma:
The measurement of ACAT inhibitory activity using Caco-2 cells was carried out by a modified method of that disclosed in the literature (J. Lipid. Research, 28, 1057-1066, 1987, Jpn. J. Pharmacol., 68, 191-199, 1995), using radioactive [1-^3H]oleic acid as a substrate, and the enzymatic activity was calculated from the radioactivity of the resultant labeled cholesterolyl oleate.

Row | Compound | ACAT inhibitory rate (%) (ACAT [1]) | ACAT inhibitory rate (%) (ACAT [2])
1 | CC(C)c1cc(N)cc(C(C)C)c1NC(=O)NCC1(c2cccc(OCCCNC(=O)CC(F)(F)F)c2)CCN(c2ccccc2)CC1 [Example 11-1, N-{(1-phenyl-4-{3-[3-(2,2,2-trifluoroethyl)carbonylaminopropoxy]phenyl}piperidin-4-yl)methyl}-N′-(4-amino-2,6-diisopropylphenyl)urea] | 99% | 57%
2 | COc1cccc(C2(CNC(=O)Nc3c(C(C)C)cc(N)cc3C(C)C)CCN(c3cccc(C)c3)CC2)c1 [Example 12-2, N-{[1-(3-methylphenyl)-4-(3-methoxyphenyl)piperidin-4-yl]methyl}-N′-(4-amino-2,6-diisopropylphenyl)urea] | 99% | 59%
3 | COc1cccc(C2(CNC(=O)Nc3c(C(C)C)cc(N)cc3C(C)C)CCN(c3cccc(F)c3)CC2)c1 [Example 12-3, N-{[1-(3-fluorophenyl)-4-(3-methoxyphenyl)piperidin-4-yl]methyl}-N′-(4-amino-2,6-diisopropylphenyl)urea] | 99% | 63%
